Measured values from PubChem BioAssay (NCI).
Where “and” joins values, the source holds several entries; their conditions need not be identical. Equal values may be shown once.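 Each compound was tested at five concentrations against cells in 96-well plates for 48 hours. Here, GI50 denotes the concentration required for 50% inhibition of growth. Definition used: TGI = concentration required for complete inhibition of growth.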

Test system: MDA-MB-468 breast
Experiment: NCI-60 cell line screen, 48 h

Question: Which results are given for `C/C(=N\NC(N)=O)C(CN1CCCCC1)C(c1ccccc1)c1c(O)c2ccccc2oc1=O` (configuration not stated)?
Answer: GI50: > 100000 nM; TGI: > 100000 nM

Question: How did the GI50 turn out when `Nc1ccc(-c2nc3ccc4[nH]ncc4c3c3c2CCCC3)cc1F` was run?
Answer: 126 nM

Question: What about the TGI of the same molecule?
Answer: 625 nM

Question: Which results are given for `CC(=O)Oc1ccc(OC(C)=O)c2ccccc12`?
Answer: GI50: 477 nM; TGI: 2190 nM

Question: For `CN1/C(=C\C(I)C(I)C2=[N+](C)c3ccccc3C2(C)C)C(C)(C)c2ccccc21` (configuration not stated), which GI50 is on record?
Answer: 72.3 nM

Question: What about the TGI of the same molecule?
Answer: 1240 nM

Question: What does the source list for `COc1ccc(-c2ccc3c(NC(=O)C4CC4)n[nH]c3n2)cc1`?
Answer: GI50: > 25000 nM; TGI: > 25000 nM

Question: For `CC(=O)OCC1OC(OC2C(COC(C)=O)OC(OCCC[S-])C(OC(C)=O)C2OC(C)=O)C(OC(C)=O)C(OC(C)=O)C1OC(C)=O.[Au+].c1ccc(CN2[CH-]N(Cc3ccccc3)C(c3ccccc3)=C2c2ccccc2)cc1` (configuration not stated), which GI50 is on record?
Answer: 2810 nM

Question: What about the TGI of the same molecule?
Answer: 12400 nM

Question: With `CC1(C)N=C(N)N=C(N)N1c1cccc(C#N)c1` as the molecule, how does the GI50 read?
Answer: 2310 nM

Question: What about the TGI of the same molecule?
Answer: > 100000 nM

Question: For `CN(C)CCCNc1nn2c(=O)c3ccccc3nc2c2ccccc12`, which GI50 is on record?
Answer: 6230 nM

Question: What about the TGI of the same molecule?
Answer: 20000 nM

Question: Which GI50 does the source give for `COc1ccc(/C(C)=C(\c2ccc(Cl)cc2)c2ccc(OCCN3CCCC3)cc2)cc1` here?
Answer: 4030 nM

Question: And the TGI?
Answer: 8850 nM

Question: Which results are given for `CCSc1oc(-c2ccccc2)nc1[P+](c1ccccc1)(c1ccccc1)c1ccccc1`?
Answer: GI50: 168 nM; TGI: 676 nM

Question: How did the GI50 turn out when `O=C1NC(=O)/C(=C/C=C/c2ccccc2)S1` was run?
Answer: 10900 nM

Question: What about the TGI of the same molecule?
Answer: 56000 nM

Question: Which results are given for `COc1ccc(SC2c3cc(OC)c(OC)cc3Oc3nc(N)c(C#N)c(N)c32)cc1` (configuration not stated)?
Answer: GI50: 320 nM; TGI: 1530 nM

Question: For `S=c1nc(-c2ccccc2)oc(=NC2CCCCC2)n1C1CCCCC1`, which GI50 is on record?
Answer: 1970 nM

Question: And the TGI?
Answer: 4830 nM

Question: With `Cl.[Pt].[c-]1ccccc1-c1ccccn1.c1ccc(P(c2ccccc2)C([PH+](c2ccccc2)c2ccccc2)[PH+](c2ccccc2)c2ccccc2)cc1` as the molecule, how does the GI50 read?
Answer: 571 nM

Question: What about the TGI of the same molecule?
Answer: 4210 nM

Question: Which GI50 does the source give for `Cn1nc(C(F)(F)F)c(-c2ccc(Cl)c(C(F)(F)F)c2)c1-c1ccc(OCc2ccc(Cl)cc2)cc1O` here?
Answer: 1340 nM

Question: And the TGI?
Answer: 3650 nM

Question: Which GI50 does the source give for `COc1ccc(-c2ccc(/C=C/C(=O)NO)cc2)cc1` here?
Answer: 463 nM

Question: And the TGI?
Answer: 2620 nM

Question: For `COc1cc(C)c(C(=O)O[C@H]2[C@H](O[C@H]3[C@@H](O)COC(O[C@H]4C[C@H]5[C@@H]6CC=C7C[C@@H](O)CC[C@]7(C)[C@H]6CC[C@]5(C)[C@H]4[C@H](C)C(=O)CCC(C)C)[C@@H]3OC(C)=O)OC[C@@H](O)[C@@H]2O)c(C)c1` (some centres not stated), which GI50 is on record?
Answer: 17.1 nM

Question: And the TGI?
Answer: 1840 nM

Question: Which results are given for `O=C(NCc1cccnc1)/C(=C\c1ccc(Br)cc1)S(=O)(=O)c1ccccc1`?
Answer: GI50: 266 nM; TGI: 933 nM

Question: How did the GI50 turn out when `C[C@]12O[C@H](C[C@]1(O)CO)n1c3ccccc3c3c4c(c5c6ccccc6n2c5c31)CNC4=O` was run?
Answer: 457 nM and 185 nM

Question: What about the TGI of the same molecule?
Answer: 2570 nM and 1650 nM

Question: Which GI50 does the source give for `CCN(CC)CCN1C(=O)c2c(c(C)c3c(oc4cc(O)ccc43)c2C)C1=O` here?
Answer: 1460 nM

Question: And the TGI?
Answer: 3010 nM

Question: With `N#Cc1c(NC(=O)c2ccccc2)sc2c1CCC(=O)C2` as the molecule, how does the GI50 read?
Answer: 2190 nM

Question: What about the TGI of the same molecule?
Answer: 6940 nM

Question: Which GI50 does the source give for `COc1ccc(/C=C/c2c(C(=O)/C=C/c3ccc(Cl)cc3)c(C)nc3ccccc23)cc1` here?
Answer: 1790 nM

Question: What about the TGI of the same molecule?
Answer: 3540 nM

Question: What does the source list for `O=C1c2ccccc2C(=O)c2c1ccc(C(Br)Br)c2[N+](=O)[O-]`?
Answer: GI50: 541 nM; TGI: 2280 nM

Question: `COc1ccc(C(=O)c2cc(OC)c(OC)c(OC)c2)cc1OC(C)=O` was tested. Which GI50 did it give?
Answer: 754 nM

Question: `Nc1ncnc2c1c(C(F)(F)F)cn2[C@@H]1O[C@H](CO)[C@@H](O)[C@H]1O` was tested. Which GI50 did it give?
Answer: 242 nM

Question: What about the TGI of the same molecule?
Answer: 2140 nM

Question: What does the source list for `COc1ccc(-c2nn(-c3cccc(Cl)c3)cc2C=C(C#N)C#N)cc1`?
Answer: GI50: 1670 nM; TGI: 4960 nM

Question: How did the GI50 turn out when `CCCS(=O)(=O)Nc1ccc(F)c(C(=O)c2c[nH]c3ncc(-c4ccc(Cl)cc4)cc23)c1F` was run?
Answer: 3550 nM and 5650 nM

Question: And the TGI?
Answer: 20100 nM and > 10000 nM

Question: Which results are given for `CCOC(=O)c1sc(-c2ccc(OS(=O)(=O)c3cccs3)c(C=O)c2)nc1C`?
Answer: GI50: 1310 nM; TGI: 4950 nM

Question: What does the source list for `CCN1CCN(c2nc(NNC(=O)Cc3ccccc3)nc(N3CCN(C(c4ccccc4)c4ccccc4)CC3)n2)CC1`?
Answer: GI50: 1950 nM; TGI: 4520 nM

Question: For `O=C(/C=C/c1ccc(C(F)(F)F)cc1)c1ccc(Nc2nc(NCCO)nc(NCCO)n2)cc1`, which GI50 is on record?
Answer: 2020 nM

Question: And the TGI?
Answer: 5070 nM

Question: For `C#CCN1C(=O)/C(=c2\sc3n(c2=O)C2C(NN=3)N(CC)C(=O)N2CC)c2ccccc21` (configuration not stated), which GI50 is on record?
Answer: 331 nM

Question: What about the TGI of the same molecule?
Answer: 3240 nM

Question: For `CC1(C)CCC[C@]23C(=O)O[C@](O)(C(=O)C4=C[C@@](C)(/C=C/CCCc5ccc6ccc7cccc8ccc5c6c78)CC[C@@]42O)[C@@H]13`, which GI50 is on record?
Answer: 196 nM

Question: What about the TGI of the same molecule?
Answer: 409 nM

Question: How did the GI50 turn out when `CCCCCCCCCCCCn1c(C)nc2ccccc21` was run?
Answer: 601 nM

Question: And the TGI?
Answer: 19400 nM

Question: How did the GI50 turn out when `CC(C)C[C@H](NC(=O)[C@H](CCc1ccccc1)NC(=O)CN1CCOCC1)C(=O)N[C@@H](Cc1ccccc1)C(=O)N[C@@H](CC(C)C)C(=O)[C@@]1(C)CO1` was run?
Answer: < 13.5 nM

Question: What about the TGI of the same molecule?
Answer: 36.2 nM
